# Reference: patent US10781215B2, “Heterobicyclic compounds useful as modulators of IL-12, IL-23 and/or IFNα responses” (BRISTOL-MYERS SQUIBB COMPANY, priority 2016, dated 2020)
# pEC50, pIC50: −log10 of the molar value.
# Columns and labels:
# [1] = molecular target: T1, recombinant human His-tagged Tyk2 pseudokinase domain (His-TVMV-Tyk2, 575-869) (Homo sapiens, UniProt P29597); experiment: Probe displacement assay (HTRF format); type: binding; conditions: fluorescein labeled probe, Tyk2 pseudokinase domain 0.5 nM
# T1 construct: made in house
# T1 sequence (P29597 with tags, fused parts or gaps): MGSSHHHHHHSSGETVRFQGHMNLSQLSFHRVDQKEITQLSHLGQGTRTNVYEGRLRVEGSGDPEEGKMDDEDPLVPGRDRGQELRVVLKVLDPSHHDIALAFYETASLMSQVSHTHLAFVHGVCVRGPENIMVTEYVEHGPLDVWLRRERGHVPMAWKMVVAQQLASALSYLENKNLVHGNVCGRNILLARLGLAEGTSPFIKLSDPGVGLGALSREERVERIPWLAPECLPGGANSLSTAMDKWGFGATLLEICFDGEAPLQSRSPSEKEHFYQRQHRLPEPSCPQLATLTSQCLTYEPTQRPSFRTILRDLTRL
# Protocol: To 10 μL 26 nM fluorescein labeled probe plus 0.2 nM anti-6×His-terbium labeled antibody (Medarex, labeled by Cisbio) in assay buffer (20 mM Hepes pH 7.5, 150 mM NaCl, 10 mM MgCl2, 2 mM DTT, 50 μg/mL BSA, and 0.015% Brij 35) was added 10 μL recombinant human His-tagged Tyk2 pseudokinase domain (His-TVMV-Tyk2, 575-869) to a final concentration of 0.5 nM. After 1 h at room temperature, the HTRF signal (ratio of fluorescence intensities at emission wavelengths for fluorescein acceptor at 520 nm and terbium donor at 495 nm) was measured on an Envision Plate Reader. Percent inhibition was calculated by comparison to a control without inhibitor and a control without protein. Dose response curves were generated to determine the concentration required for inhibiting 50% of the HTRF signal (EC50).
# [2] = system: IL-23 stimulated Kit225 T cells (STAT-dependent luciferase reporter); experiment: Kit225 T cell assay, IL-23 stimulated STAT-dependent luciferase reporter; type: cell-based; conditions: 20 ng/mL human recombinant IL-23, 5-6 hours
# Protocol: (§1) Kit225 T cells with a stably-integrated STAT-dependent luciferase reporter were plated in RPMI (Gibco) containing 10% heat-inactivated FBS (Gibco) and 100 U/mL PenStrep (Gibco). The cells were then stimulated with either 20 ng/mL human recombinant IL-23 or 200 U/mL human recombinant IFNα (PBL InterferonSource) for 5-6 hours. Luciferase expression was measured using the STEADY-GLO® Luciferase Assay System (Promega) according to the manufacturer's instructions. Inhibition data were calculated by comparison to no inhibitor control wells for 0% inhibition and non-stimulated control wells for 100% inhibition. Dose response curves were generated to determine the concentration required to inhibit 50% of cellular response (IC50) as derived by non-linear regression analysis.
# [3] = system: IFNα stimulated Kit225 T cells (STAT-dependent luciferase reporter); experiment: Kit225 T cell assay, IFNα stimulated STAT-dependent luciferase reporter; type: cell-based; conditions: 200 U/mL human recombinant IFNα, 5-6 hours
# Protocol: as §1
# [4] = molecular target: T2, human Tyk2 (amino acids 575-869, His-tagged) (Homo sapiens, UniProt P29597); experiment: Probe displacement assay (SPA format); type: binding; conditions: radiolabeled probe 40 nM, Tyk2 2.5 nM
# T2 construct: made in house
# T2 sequence (P29597 with tags, fused parts or gaps): as above
# Protocol: Probe Displacement Assay (SPA Format) The probe displacement assay is conducted as follows: In a […], test compounds along with recombinantly expressed His-tagged protein corresponding to amino acids 575-869 of human Tyk2 (sequence shown below) at 2.5 nM, 40 nM ((R)—N-(1-(3-(8-methyl-5-(methylamino)-8H-imidazo [4,5-d]thiazolo [5,4-b]pyridin-2-yl)phenyl)ethyl)-2-([^3H]methylsulfonyl)benzamide) (preparation described below) and 80 μg/mL Copper His-Tag scintillation proximity assay beads (Perkin Elmer, Catalog # RPNQ0095) in 50 mM HEPES, pH 7.5, containing 100 μg/mL bovine serum albumin and 5% DMSO were incubated for 30 minutes at room temperature. The amount of radiolabeled probe (preparation described below) bound to Tyk2 was then quantified by scintillation counting, and the inhibition by the test compound calculated by comparison to wells either with no inhibitor (0% inhibition) or without Tyk2 (100% inhibition). The EC50 value is defined as the concentration of test compound required to inhibit radiolabeled probe binding by 50%. Probe Displacement Assay (HTRF Format)
Structure (SMILES),pEC50 [1],pIC50 [2],pIC50 [3],pEC50 [4]
"Cc1nc2c(Nc3ccccc3S(C)(=O)=O)cc(Nc3cc(C#N)ccn3)nc2[nH]1 [Example 3, 2-({7-[(2-methanesulfonylphenyl)amino]-2-methyl-3H-imidazo[4,5-b]pyridin-5-yl}amino)pyridine-4-carbonitrile]",,6.56,6.72,7.92
"Cc1nc2c(Nc3ccccc3S(C)(=O)=O)cc(Nc3ccc(C(F)(F)F)cn3)nc2[nH]1 [Example 10, 7-N-(2-methanesulfonylphenyl)-2-methyl-5-N-[5-(trifluoromethyl)pyridin-2-yl]-3H-imidazo[4,5-b]pyridine-5,7-diamine]",,6.84,6.72,7.89
"Cc1nc2c(Nc3ccccc3S(C)(=O)=O)cc(Nc3ccn4nccc4n3)nc2[nH]1 [Example 27, 7-N-(2-methanesulfonylphenyl)-2-methyl-5-N-{pyrazolo[1,5-a]pyrimidin-5-yl}-3H-imidazo[4,5-b]pyridine-5,7-diamine]",,6.49,6.91,8.40
"Cc1ccc(Nc2cc(Nc3ccccc3S(C)(=O)=O)c3nc(C)[nH]c3n2)nn1 [Example 11, 7-N-(2-methanesulfonylphenyl)-2-methyl-5-N-(6-methylpyridazin-3-yl)-3H-imidazo[4,5-b]pyridine-5,7-diamine]",,6.06,6.33,8.00
"Cc1nc2c(Nc3ccccc3S(C)(=O)=O)cc(NC(=O)C3CC3)nc2[nH]1 [Example 7, N-{7-[(2-methanesulfonylphenyl)amino]-2-methyl-3H-imidazo[4,5-b]pyridin-5-yl}cyclopropanecarboxamide]",,6.14,6.55,7.85
"COc1ccnc(Nc2cc(Nc3ccccc3S(C)(=O)=O)c3nc(C)[nH]c3n2)c1 [Example 18, 7-N-(2-methanesulfonylphenyl)-5-N-(4-methoxypyridin-2-yl)-2-methyl-3H-imidazo[4,5-b]pyridine-5,7-diamine]",,5.62,5.44,6.62
"Cc1nc2c(Nc3ccccc3S(C)(=O)=O)cc(Nc3ccc(F)cn3)nc2[nH]1 [Example 2, N5-(5-fluoropyridin-2-yl)-2-methyl-N7-(2-(methylsulfonyl)phenyl)-3H-imidazo[4,5-b]pyridine-5,7-diamine]",,6.79,7.06,7.89
"Cc1nc2c(Nc3ccccc3S(C)(=O)=O)cc(Nc3ccc(C#N)cn3)nc2[nH]1 [Example 13, 6-({7-[(2-methanesulfonylphenyl)amino]-2-methyl-3H-imidazo[4,5-b]pyridin-5-yl}amino)pyridine-3-carbonitrile]",,6.73,6.72,8.05
"Cc1cc(Nc2cc(Nc3ccccc3S(C)(=O)=O)c3nc(C)[nH]c3n2)nc(C)n1 [Example 4, 5-N-(2,6-dimethylpyrimidin-4-yl)-7-N-(2-methanesulfonylphenyl)-2-methyl-3H-imidazo[4,5-b]pyridine-5,7-diamine]",,6.46,6.71,7.92
"COc1cnc(Nc2cc(Nc3ccccc3S(C)(=O)=O)c3nc(C)[nH]c3n2)cn1 [Example 6, 7-N-(2-methanesulfonylphenyl)-5-N-(5-methoxypyrazin-2-yl)-2-methyl-3H-imidazo[4,5-b]pyridine-5,7-diamine]",,6.35,6.43,7.43
"COc1ccc(Nc2cc(Nc3ccccc3S(C)(=O)=O)c3nc(C)[nH]c3n2)nn1 [Example 19, 7-N-(2-methanesulfonylphenyl)-5-N-(6-methoxypyridazin-3-yl)-2-methyl-3H-imidazo[4,5-b]pyridine-5,7-diamine]",,6.32,6.14,7.72
"Cc1nc2c(Nc3ccccc3S(C)(=O)=O)cc(Nc3ccc(N4CCCC4=O)cn3)nc2[nH]1 [Example 24, 1-[6-({7-[(2-methanesulfonylphenyl)amino]-2-methyl-3H-imidazo[4,5-b]pyridin-5-yl}amino)pyridin-3-yl]pyrrolidin-2-one]",,5.91,6.20,7.82

# More lines, now with the values ahead:
pEC50 [1],pIC50 [2],pIC50 [3],pEC50 [4],Structure (SMILES)
9.15,6.97,7.01,,"Cc1cccc(Nc2cc(Nc3ncccc3S(C)(=O)=O)c3nc(C)[nH]c3n2)n1 [Example 49, 7-N-(3-methanesulfonylpyridin-2-yl)-2-methyl-5-N-(6-methylpyridin-2-yl)-3H-imidazo[4,5-b]pyridine-5,7-diamine]"
9.10,7.28,7.35,,"Cc1nc2c(Nc3ncccc3S(C)(=O)=O)cc(Nc3cc(F)ccn3)nc2[nH]1 [Example 43, 5-N-(4-fluoropyridin-2-yl)-7-N-(3-methanesulfonylpyridin-2-yl)-2-methyl-3H-imidazo[4,5-b]pyridine-5,7-diamine]"
8.74,5.53,6.49,,"Cc1ccnc(Nc2cc(Nc3ncccc3S(C)(=O)=O)c3nc(C)[nH]c3n2)c1 [Example 46, 7-N-(3-methanesulfonylpyridin-2-yl)-2-methyl-5-N-(4-methylpyridin-2-yl)-3H-imidazo[4,5-b]pyridine-5,7-diamine]"
9.40,7.55,7.17,,"Cc1nc2c(Nc3ncccc3S(C)(=O)=O)cc(Nc3ccc(F)cn3)nc2[nH]1 [Example 41, 5-N-(5-fluoropyridin-2-yl)-7-N-(3-methanesulfonylpyridin-2-yl)-2-methyl-3H-imidazo[4,5-b]pyridine-5,7-diamine]"
8.92,6.34,6.54,,"COc1ccc(Nc2cc(Nc3ncccc3S(C)(=O)=O)c3nc(C)[nH]c3n2)nn1 [Example 45, 7-N-(3-methanesulfonylpyridin-2-yl)-5-N-(6-methoxypyridazin-3-yl)-2-methyl-3H-imidazo[4,5-b]pyridine-5,7-diamine]"
9.40,6.16,6.39,,"Cc1nc2c(Nc3ncccc3S(C)(=O)=O)cc(NC(=O)C3CC3)nc2[nH]1 [Example 47, N-{7-[(3-methanesulfonylpyridin-2-yl)amino]-2-methyl-3H-imidazo[4,5-b]pyridin-5-yl}cyclopropanecarboxamide]"
,5.09,5.29,6.29,"COc1ccccc1Nc1cc(Nc2ccc(F)cn2)nc2[nH]c(C)nc12 [Example 38, 5-N-(5-fluoropyridin-2-yl)-7-N-(2-methoxyphenyl)-2-methyl-3H-imidazo[4,5-b]pyridine-5,7-diamine]"
,5.52,5.57,7.77,"COc1c(Nc2cc(NC(=O)C3CC3)nc3[nH]c(C)nc23)cccc1-c1ncn(C)n1 [Example 39, N-(7-{[2-methoxy-3-(1-methyl-1H-1,2,4-triazol-3-yl)phenyl]amino}-2-methyl-3H-imidazo[4,5-b]pyridin-5-yl)cyclopropanecarboxamide]"
,5.85,5.37,6.97,"CCc1nc2c(Nc3ccccc3S(C)(=O)=O)cc(Nc3cc(C)nc(C)n3)nc2[nH]1 [Example 52, 5-N-(2,6-dimethylpyrimidin-4-yl)-2-ethyl-7-N-(2-methanesulfonylphenyl)-3H-imidazo[4,5-b]pyridine-5,7-diamine]"
,7.68,7.46,8.22,"Cc1cccc(Nc2cc(Nc3ccccc3S(C)(=O)=O)c3nc(C)[nH]c3n2)n1 [Example 29, 7-N-(2-methanesulfonylphenyl)-2-methyl-5-N-(6-methylpyridin-2-yl)-3H-imidazo[4,5-b]pyridine-5,7-diamine]"
,5.50,5.29,6.09,"COc1ccccc1Nc1cc(NC(=O)C2CC2)nc2[nH]c(C)nc12 [Example 35, N-{7-[(2-methoxyphenyl)amino]-2-methyl-3H-imidazo[4,5-b]pyridin-5-yl}cyclopropanecarboxamide]"
